From patent US10300042B2, “Apremilast for the treatment of a liver disease or a liver function abnormality” (Celgene Corporation, priority 2014, dated 2019)

How the values were obtained:
[1] = tested on: TNF-α; experiment: Inhibition of TNF-α production in PBMCs; assay type: cell-based; settings: PBMC
Excerpt: (§1) The test methods were as described in WO 03/080049; Muller et al., J. Med. Chem., 1996, 39:3238; and Muller et al., Bioorg. Med. Chem. Lett., 1999, 9:1625-30.

[2] = tested on: TNF-α; experiment: Inhibition of TNF-α production in a mouse model; assay type: in vivo
Excerpt: as §1

[3] = tested on: PDE3; experiment: PDE3 enzyme assay; assay type: biochemical; settings: at 10 μM
Description: (§2) PDE1, 2, 3 and 5 enzyme assays were prepared as described by Hidaka and Asano. Biochem. Biophys. Acta., 1976, 429:485; see also Nicholsen et al., Trends Pharmaco. Sci., 1991, 12:19. The PDE6 enzyme assay was prepared according to Baehr et al., J. Biol. Chem., 1979, 254:11669 and Gillespie et al., Mol. Pharm., 1989, 36: 773. The PDE7 enzyme assay was prepared according to Bloom and Beavo. Proc. Natl. Acad. Sci. USA, 1996, 93:14188-92.

[4] = target: PDE5 (Homo sapiens, UniProt O76074); experiment: PDE5 enzyme assay; assay type: biochemical
Description: as §2

[5] = tested on: Alanine Aminotransferase; experiment: ALT levels in PSOR-008 and PSOR-009 (plaque psoriasis); assay type: in vivo, human; settings: for ALT High, % of patients / ALT Low, % of patients / ALT Normal, % of patients: Week 16, 30 mg BID
Description: Apremilast was studied in Phase 3 trials in patients with moderate to severe plaque psoriasis. […] The improvement in mild baseline liver function test abnormalities has been observed with apremilast daily use without any prescribed changes in physical activity, social or dietary habits. During the course of the study, there was observed a higher proportion of subjects in the apremilast treatment group (30 mg BID) with normal LFTs (i.e. normal levels of ALT and AST) at subsequent placebo-controlled study visits at week 16. See Tables 11 to 16 from PSOR-008 and PSOR-009 studies.

[6] = tested on: Alanine Aminotransferase; experiment: ALT levels in RA-002 (rheumatoid arthritis); assay type: in vivo, human; settings: for ALT High to Normal, percent of patients / ALT Net Benefit / ALT Normal to High, percent of patients: end of treatment (week 16); for ALT High, % of patients / ALT Low, % of patients / ALT Normal, % of patients: Week 16
Description: The improvement in mild baseline liver function test abnormalities has been observed with apremilast daily use without any prescribed changes in physical activity, social or dietary habits. During the course of the study, there was observed a higher proportion of subjects in the 30 mg BID apremilast treatment group with normal LFTs at subsequent placebo-controlled study visits at week 16. See Tables 17 to 24 from RA-002 studies.

[7] = tested on: Aspartate Aminotransferase; experiment: AST levels in PSA-005 (psoriatic arthritis); assay type: in vivo, human; settings: for AST High to Normal, percent of patients / AST Net Benefit / AST Normal to High, percent of patients: end of treatment (week 24)
Excerpt: Apremilast was studied in a Phase 3 trial in patients with active psoriatic arthritis who have not been previously treated with disease-modifying antirheumatic drugs. […] The improvement in mild baseline liver function test abnormalities has been observed with apremilast daily use without any prescribed changes in physical activity, social or dietary habits. […] See Tables 25 to 34 from PSA-005 studies.

[8] = tested on: patients with moderate to severe plaque psoriasis; experiment: Pruritus in ESTEEM 1; assay type: in vivo, human; settings: Week 16, 30 mg BID
Description: (§3) Patients were randomized with Apremilast in an amount of 30 mg twice per day or placebo for the first 16 weeks, and from Weeks 16 to 32, all patients received Apremilast in an amount of 30 mg twice per day.

[9] = tested on: patients with moderate to severe plaque psoriasis; experiment: Pruritus in ESTEEM 2; assay type: in vivo, human; settings: Week 16, 30 mg BID
Description: as §3

[10] = 30 BID, end of treatment (week 16)
[11] = Baseline High, Week 24, 20 mg BID
[12] = Baseline High, Week 24, 30 mg BID
[13] = Baseline Normal, Week 24, 20 mg BID
[14] = Baseline Normal, Week 24, 30 mg BID
[15] = Baseline Total, Week 24, 20 mg BID
[16] = Baseline Total, Week 24, 30 mg BID

CCOc1cc([C@@H](CS(C)(=O)=O)N2C(=O)c3cccc(NC(C)=O)c3C2=O)ccc1OC [Apremilast, (+)-2-[1-(3-ethoxy-4-methoxyphenyl)-2-methylsulfonylethyl]-4-acetylaminoisoindoline-1,3-dione]
IC50 [1]: 77 nM | EC50, TNF-α production [2]: 0.05 mg/kg | % inhibition PDE3 [3]: 20% | inhibition at 10 µM [4]: 3% | ALT High to Normal, percent of patients [5, 10]: 57.1% | ALT Net Benefit [5, 10]: 53.7% | ALT Normal to High, percent of patients [5, 10]: 3.7% | ALT High to Normal, Difference (APR 30 BID vs Placebo) ([5]; 30 BID, week 16): 3.1% | ALT Net Benefit, Difference (APR 30 BID vs Placebo) ([5]; 30 BID, week 16): 17.9% | ALT Normal to High, Difference (APR 30 BID vs Placebo) ([5]; 30 BID, week 16): −2.1% | ALT High to Normal, Difference (APR 30 BID vs Placebo) ([5]; 30 BID, week 16, listed as APR): 3.1% | ALT High, % of patients ([5]; Baseline High): 42.9% | ALT Low, % of patients ([5]; Baseline High): 0.0% | ALT Normal, % of patients ([5]; Baseline High): 57.1% | ALT High, % of patients ([5]; Baseline Normal): 3.7% | ALT Low, % of patients ([5]; Baseline Normal): 0.0% | ALT Normal, % of patients ([5]; Baseline Normal): 96.3% | ALT High, % of patients ([5]; Baseline Total): 7.8% | ALT Low, % of patients ([5]; Baseline Total): 0.0% | ALT Normal, % of patients ([5]; Baseline Total): 92.2% | ALT High to Normal, percent of patients ([6]; 20 BID): 25.0% | ALT Net Benefit ([6]; 20 BID): 14.3% | ALT Normal to High, percent of patients ([6]; 20 BID): 4.5% | ALT High to Normal, percent of patients ([6]; 30 BID): 66.7% | ALT Net Benefit ([6]; 30 BID): 40.0% | ALT Normal to High, percent of patients ([6]; 30 BID): 3.1% | ALT High to Normal, Difference between Placebo and APR 30 BID ([6]; 30 BID, week 16): 0% | ALT Net Benefit, Difference between Placebo and APR 30 BID ([6]; 30 BID, week 16): −26.7% | ALT Normal to High, Difference between Placebo and APR 30 BID ([6]; 30 BID, week 16): 3.1% | ALT High to Normal, Difference between Placebo and APR 30 BID ([6]; 30 BID, week 16, listed as APR): 0.0% | ALT High, % of patients ([6]; Baseline High, 20 mg BID): 75.0% | ALT Low, % of patients ([6]; Baseline High, 20 mg BID): 0.0% | ALT Normal, % of patients ([6]; Baseline High, 20 mg BID): 25.0% | ALT High, % of patients ([6]; Baseline High, 30 mg BID): 33.3% | ALT Low, % of patients ([6]; Baseline High, 30 mg BID): 0.0% | ALT Normal, % of patients ([6]; Baseline High, 30 mg BID): 66.7% | ALT High, % of patients ([6]; Baseline Normal, 20 mg BID): 4.5% | ALT Low, % of patients ([6]; Baseline Normal, 20 mg BID): 0.0% | ALT Normal, % of patients ([6]; Baseline Normal, 20 mg BID): 95.5% | ALT High, % of patients ([6]; Baseline Normal, 30 mg BID): 3.1% | ALT Low, % of patients ([6]; Baseline Normal, 30 mg BID): 0.0% | ALT Normal, % of patients ([6]; Baseline Normal, 30 mg BID): 96.9% | ALT High, % of patients ([6]; Baseline Total, 20 mg BID): 8.6% | ALT Low, % of patients ([6]; Baseline Total, 20 mg BID): 0.0% | ALT Normal, % of patients ([6]; Baseline Total, 20 mg BID): 91.4% | ALT High, % of patients ([6]; Baseline Total, 30 mg BID): 4.5% | ALT Low, % of patients ([6]; Baseline Total, 30 mg BID): 0.0% | ALT Normal, % of patients ([6]; Baseline Total, 30 mg BID): 95.5% | AST High to Normal, percent of patients ([7]; 20 BID): 60.0% | AST Net Benefit ([7]; 20 BID): 37.5% | AST Normal to High, percent of patients ([7]; 20 BID): 2.0% | AST High to Normal, percent of patients ([7]; 30 BID): 75.0% | AST Net Benefit ([7]; 30 BID): 60.0% | AST Normal to High, percent of patients ([7]; 30 BID): 2.1% | AST High to Normal, Difference between Placebo and APR 30 BID ([7]; 30 BID, week 24): 25% | AST Net Benefit, Difference between Placebo and APR 30 BID ([7]; 30 BID, week 24): 35.0% | AST Normal to High, Difference between Placebo and APR 30 BID ([7]; 30 BID, week 24): −1.8% | AST High to Normal, Difference between Placebo and APR 30 BID ([7]; 30 BID, week 24, listed as APR): 25.0% | AST High, % of patients [7, 11]: 40.0% | AST Low, % of patients [7, 11]: 0.0% | AST Normal, % of patients [7, 11]: 60.0% | AST High, % of patients [7, 12]: 25.0% | AST Low, % of patients [7, 12]: 0.0% | AST Normal, % of patients [7, 12]: 75.0% | AST High, % of patients [7, 13]: 2.0% | AST Low, % of patients [7, 13]: 0.0% | AST Normal, % of patients [7, 13]: 98.0% | AST High, % of patients [7, 14]: 2.1% | AST Low, % of patients [7, 14]: 0.0% | AST Normal, % of patients [7, 14]: 97.9% | AST High, % of patients [7, 15]: 3.2% | AST Low, % of patients [7, 15]: 0.0% | AST Normal, % of patients [7, 15]: 96.8% | AST High, % of patients [7, 16]: 3.9% | AST Low, % of patients [7, 16]: 0.0% | AST Normal, % of patients [7, 16]: 96.1% | Baseline High AST: High % ([7]; Week 4, 20 mg BID): 71.4% | Baseline High AST: Normal % ([7]; Week 4, 20 mg BID): 28.6% | Baseline High AST: High % ([7]; Week 4, 30 mg BID): 50.0% | Baseline High AST: Normal % ([7]; Week 4, 30 mg BID): 50.0% | Baseline High AST: High % ([7]; Week 16, 20 mg BID): 20.0% | Baseline High AST: Normal % ([7]; Week 16, 20 mg BID): 80.0% | Baseline High AST: High % ([7]; Week 16, 30 mg BID): 41.7% | Baseline High AST: Normal % ([7]; Week 16, 30 mg BID): 58.3% | Baseline High AST: High % ([7]; Week 24, 20 mg BID): 40.0% | Baseline High AST: Normal % ([7]; Week 24, 20 mg BID): 60.0% | Baseline High AST: High % ([7]; Week 24, 30 mg BID): 25.0% | Baseline High AST: Normal % ([7]; Week 24, 30 mg BID): 75.0% | Change in Pruritus Visual Analog Scale (mm ± SD) [8]: −31.5 (±32.43) mm | Change in Pruritus Visual Analog Scale (mm ± SD) [9]: −33.5 (±35.46) mm
